The values that follow come from patent US8324186B2, “4-azetidinyl-1-heteroatom linked-cyclohexane antagonists of CCR2” (Janssen Pharmaceutica N.V., priority 2009, dated 2012).

pIC50: −log10 of the molar value.

As usually defined, the pIC50 is the negative decadic logarithm of the IC50, by convention in mol/L.

In this assay the target is T1, CCR2 (Homo sapiens, UniProt P41597).
T1 construct: host or cells: THP-1 human monocytic cells
T1 sequence (P41597 whole entry): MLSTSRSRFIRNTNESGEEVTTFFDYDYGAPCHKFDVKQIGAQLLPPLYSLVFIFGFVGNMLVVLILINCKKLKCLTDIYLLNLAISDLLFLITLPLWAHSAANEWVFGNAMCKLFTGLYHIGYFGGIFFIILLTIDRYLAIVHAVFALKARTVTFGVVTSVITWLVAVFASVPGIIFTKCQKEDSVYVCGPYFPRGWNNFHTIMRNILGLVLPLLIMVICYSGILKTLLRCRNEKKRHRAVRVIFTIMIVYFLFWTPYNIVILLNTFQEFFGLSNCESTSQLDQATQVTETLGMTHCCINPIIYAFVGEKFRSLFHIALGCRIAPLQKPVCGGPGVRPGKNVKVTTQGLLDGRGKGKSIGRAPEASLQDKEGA
Kind of assay: MCP-1 Receptor Binding Assay in THP-1 Cells (125I-MCP-1 displacement). To be noted: 0.5 nM 125I labeled MCP-1, 2 hours at 30° C., read-out: CCR2 Binding, Inhibition of MCP-1 Binding IC50. As to the method:
Compounds of the invention were subjected to various representative biological tests. The results of these tests are intended to illustrate the invention in a non-limiting fashion. MCP-1 Receptor Binding Assay in THP-1 Cells
Human monocytic cell line THP-1 cells were obtained from American Type Culture Collection (Manassas, Va., USA). The THP-1 cells were grown in RPMI-1640 (RPMI: Roswell Park Memorial Institute Medium-cell culture growth media) supplemented with 10% fetal bovine serum in a humidified 5% CO2 atmosphere at 37° C. The cell density was maintained […].
THP-1 (cells were incubated with 0.5 nM ^125I labeled MCP-1 (Perkin-Elmer Life Sciences, Inc. Boston, Mass.) in the presence of varying concentrations of either unlabeled MCP-1 (R & D Systems, Minneapolis, Minn.) or test compound for 2 hours at 30° C. in a 96 well plate. Cells were then harvested onto a filter plate, dried, and 20 μL of Microscint 20 was added to each well. Plates were counted in a TopCount NXT, Microplate Scintillation & Luminescence Counter (Perkin-Elmer Life Sciences, Inc. Boston, Mass.). Blank values (buffer only) were subtracted from all values and drug treated values were compared to vehicle treated values. 1 μM cold MCP-1 was used for nonspecific binding.
Table 1 lists IC50 values for inhibition of MCP-1 binding to CCR2 obtained for test compounds of the invention. Where an IC50 value was not obtained for a particular compound, the percent inhibition is provided at a test concentration of 25 μM.
On to `O=C(CNC(=O)c1cccc(C(F)(F)F)c1)NC1CN(C2CCC(n3ccccc3=O)CC2)C1` (single isomer, unassigned) [Example 1a, N-({1-[4-(2-Oxo-2H-pyridin-1-yl)-cyclohexyl]-azetidin-3-ylcarbamoyl}-methyl)-3-trifluoromethyl-benzamide], for which the pIC50 is 6.89.

For `O=C(CNC(=O)c1cccc(C(F)(F)F)c1)NC1CN(C2CCC(Oc3ccccn3)CC2)C1` (single isomer, unassigned) [Example 2a, N-({1-[4-(Pyridin-2-yloxy)-cyclohexyl]-azetidin-3-ylcarbamoyl}-methyl)-3-trifluoromethyl-benzamide], the pIC50 was 6.64. In the case of `O=C(CNC(=O)c1cccc(C(F)(F)F)c1)NC1CN(C2CCC(Oc3ncc(Br)cn3)CC2)C1` (single isomer, unassigned) [Example 5a, N-({1-[4-(5-Bromo-pyrimidin-2-yloxy)-cyclohexyl]-azetidin-3-ylcarbamoyl}-methyl)-3-trifluoromethyl-benzamide] it was 4.62; in that of `O=C(CNC(=O)c1cccc(C(F)(F)F)c1)NC1CN(C2CCC(n3cnccc3=O)CC2)C1` (single isomer, unassigned) [Example 6a, N-({1-[4-(6-Oxo-6H-pyrimidin-1-yl)-cyclohexyl]-azetidin-3-ylcarbamoyl}-methyl)-3-trifluoromethyl-benzamide], 6.42; in that of `O=C(CNC(=O)c1cccc(C(F)(F)F)c1)NC1CN(C2CCC(Oc3ccncn3)CC2)C1` (single isomer, unassigned) [Example 7a, N-({1-[4-(Pyrimidin-4-yloxy)-cyclohexyl]-azetidin-3-ylcarbamoyl}-methyl)-3-trifluoromethyl-benzamide], 5.57.

Regarding `O=C(CNC(=O)c1cccc(C(F)(F)F)c1)NC1CN(C2CCC(n3cc(I)ccc3=O)CC2)C1` (single isomer, unassigned) [Example 8a, N-({1-[4-(5-Iodo-2-oxo-2H-pyridin-1-yl)-cyclohexyl]-azetidin-3-ylcarbamoyl}-methyl)-3-trifluoromethyl-benzamide], the pIC50 is 6.37. Consider `Cc1ccc(OC2CCC(N3CC(NC(=O)CNC(=O)c4cccc(C(F)(F)F)c4)C3)CC2)nc1` (single isomer, unassigned) [Example 12a, N-({1-[4-(5-Methyl-pyridin-2-yloxy)-cyclohexyl]-azetidin-3-ylcarbamoyl}-methyl)-3-trifluoromethyl-benzamide], for which the pIC50 was 6.09. Take `COc1cccn(C2CCC(N3CC(NC(=O)CNC(=O)c4cccc(C(F)(F)F)c4)C3)CC2)c1=O` (single isomer, unassigned) [Example 13a, N-({1-[4-(3-Methoxy-2-oxo-2H-pyridin-1-yl)-cyclohexyl]-azetidin-3-ylcarbamoyl}-methyl)-3-trifluoromethyl-benzamide]: the pIC50 was 7.00. In the case of `O=C(CNC(=O)c1cccc(C(F)(F)F)c1)NC1CN(C2CCC(n3ccc(O)cc3=O)CC2)C1` (single isomer, unassigned) [Example 15a, N-({1-[4-(4-Hydroxy-2-oxo-2H-pyridin-1-yl)-cyclohexyl]-azetidin-3-ylcarbamoyl}-methyl)-3-trifluoromethyl-benzamide] it was 5.27; in that of `Cc1cccn(C2CCC(N3CC(NC(=O)CNC(=O)c4cccc(C(F)(F)F)c4)C3)CC2)c1=O` (single isomer, unassigned) [Example 18a, N-({1-[4-(3-Methyl-2-oxo-2H-pyridin-1-yl)-cyclohexyl]-azetidin-3-ylcarbamoyl}-methyl)-3-trifluoromethyl-benzamide], 6.48; in that of `O=C(CNC(=O)c1cccc(C(F)(F)F)c1)NC1CN(C2CCC(n3cc(C(F)(F)F)ccc3=O)CC2)C1` (single isomer, unassigned) [Example 21a, N-({1-[4-(2-Oxo-5-trifluoromethyl-2H-pyridin-1-yl)-cyclohexyl]-azetidin-3-ylcarbamoyl}-methyl)-3-trifluoromethyl-benzamide], 5.19. Take `O=C(CNC(=O)c1cccc(C(F)(F)F)c1)NC1CN(C2CCC(n3cc(Cl)ccc3=O)CC2)C1` (single isomer, unassigned) [Example 22a, N-({1-[4-(2-Oxo-5-chloro-2H-pyridin-1-yl)-cyclohexyl]-azetidin-3-ylcarbamoyl}-methyl)-3-trifluoromethyl-benzamide]: the pIC50 was 5.96. As for `O=C(CNC(=O)c1cccc(C(F)(F)F)c1)NC1CN(C2CCC(N3C(=O)c4ccccc4C3=O)CC2)C1` (single isomer, unassigned) [Example 24a, N-({1-[4-(1,3-Dioxo-1,3-dihydro-isoindol-2-yl)-cyclohexyl]-azetidin-3-ylcarbamoyl}-methyl)-3-trifluoromethyl-benzamide], the pIC50 was 6.17. Turning to `O=C(CNC(=O)c1cccc(C(F)(F)F)c1)NC1CN(C2CCC(Oc3noc4ccccc34)CC2)C1` (single isomer, unassigned) [Example 25a, N-({1-[4-(Benzo[d]isoxazol-3-yloxy)-cyclohexyl]azetidin-3-ylcarbamoyl}-methyl)-3-trifluoromethyl-benzamide], the pIC50 was 6.47. In the case of `O=C(CNC(=O)c1cccc(C(F)(F)F)c1)NC1CN(C2CCC(n3oc4ccccc4c3=O)CC2)C1` (single isomer, unassigned) [Example 26a, N-({1-[4-(3-Oxo-3H-benzo[d]isoxazol-2-yl)-cyclohexyl]-azetidin-3-ylcarbamoyl}-methyl)-3-trifluoromethyl-benzamide], the pIC50 is 7.02.

As for `Cc1cnn(C2CCC(N3CC(NC(=O)CNC(=O)c4cccc(C(F)(F)F)c4)C3)CC2)c1` (single isomer, unassigned) [Example 27a, N-({1-[4-(4-Methyl-pyrazol-1-yl)-cyclohexyl]-azetidin-3-ylcarbamoyl}-methyl)-3-trifluoromethyl-benzamide], the negative logarithm of the IC50 (pIC50) was 6.77.

Consider `C[Si](C)(C)C#Cc1cnn(C2CCC(N3CC(NC(=O)CNC(=O)c4cccc(C(F)(F)F)c4)C3)CC2)c1` (single isomer, unassigned) [Example 29a, 3-Trifluoromethyl-N-({1-[4-(4-trimethylsilanylethynyl-pyrazol-1-yl)-cyclohexyl]-azetidin-3-ylcarbamoyl}-methyl)-benzamide], for which the pIC50 was 7.68.

As to `C#Cc1cnn(C2CCC(N3CC(NC(=O)CNC(=O)c4cccc(C(F)(F)F)c4)C3)CC2)c1` (single isomer, unassigned) [Example 30a, N-({1-[4-(4-Ethynyl-pyrazol-1-yl)-cyclohexyl]-azetidin-3-ylcarbamoyl}-methyl)-3-trifluoromethyl-benzamide], the pIC50 was 7.06. As to `O=C(CNC(=O)c1cccc(C(F)(F)F)c1)NC1CN(C2CCC(n3ccnc3)CC2)C1` (single isomer, unassigned) [Example 31a, N-{[1-(4-Imidazol-1-yl-cyclohexyl)-azetidin-3-ylcarbamoyl]-methyl}-3-trifluoromethyl-benzamide], the pIC50 is 6.47.

Regarding `O=C(CNC(=O)c1cccc(C(F)(F)F)c1)NC1CN(C2CCC(n3ncc4ccccc43)CC2)C1` (single isomer, unassigned) [Example 32a, N-{[1-(4-Indazol-1-yl-cyclohexyl)-azetidin-3-ylcarbamoyl]-methyl}-3-trifluoromethyl-benzamide], the pIC50 is 6.29. `O=C(CNC(=O)c1cccc(C(F)(F)F)c1)NC1CN(C2CCC(Oc3nsc4ccccc34)CC2)C1` (single isomer, unassigned) [Example 34a, N-({1-[4-(Benzo[d]isothiazol-3-yloxy)-cyclohexyl]-azetidin-3-ylcarbamoyl}-methyl)-3-trifluoromethyl-benzamide]: the pIC50 was 6.54.

Regarding `O=C(CNC(=O)c1cccc(C(F)(F)F)c1)NC1CN(C2CCC3(CC2)OC(=O)c2ccccc23)C1` (single isomer, unassigned) [Example 38a], the pIC50 was 6.04.

As to `O=C(CNC(=O)c1cccc(C(F)(F)F)c1)NC1CN(C2CCC3(CC2)NC(=O)c2ccccc23)C1` (single isomer, unassigned) [Example 39a], the pIC50 is 5.82. In the case of `O=C(CNC(=O)c1cccc(C(F)(F)F)c1)NC1CN(C2CCC3(CC2)OC(=O)Nc2ccccc23)C1` (single isomer, unassigned) [Example 40a] it was 5.66; in that of `O=C(CNC(=O)c1cccc(C(F)(F)F)c1)NC1CN(C2CCC3(CC2)OCc2ccccc23)C1` (single isomer, unassigned) [Example 41a, N-[(1-3′H-Spiro[cyclohex-1,1′-isobenzofuran]-4-yl-azetidin-3-ylcarbamoyl)-methyl]-3-trifluoromethyl-benzamide], 7.10. Consider `O=C(CNC(=O)c1cccc(C(F)(F)F)c1)NC1CN(C2CCC(n3cc(Br)cnc3=O)CC2)C1` (stereo not drawn) [Example 3, N-({1-[4-(5-Bromo-2-oxo-2H-pyrimidin-1-yl)-cyclohexyl]-azetidin-3-ylcarbamoyl}-methyl)-3-trifluoromethyl-benzamide], for which the pIC50 was 5.66. Consider `O=C(CNC(=O)c1cccc(C(F)(F)F)c1)NC1CN(C2CCC(n3cccnc3=O)CC2)C1` (stereo not drawn) [Example 4, N-({1-[4-(2-Oxo-2H-pyrimidin-1-yl)-cyclohexyl]-azetidin-3-ylcarbamoyl}-methyl)-3-trifluoromethyl-benzamide], for which the pIC50 was 5.23.
